Results: US4870175A, “6-substituted alkoxy-2-oxo-1,2-dihydroquinoxaline derivatives” (Toyo Jozo Kabushiki Kaisha, priority 1987, dated 1989)
Where two headings read alike, the source gives them in different places.

Assays:
[1] = test system: cyclic AMP/phosphodiesterase; experiment: Inhibitory action of cyclic AMP/phosphodiesterase (crude enzyme fraction from sonicated rabbit platelets); assay type: biochemical; conditions: 40 min
Method: The pharmacological activity of the present compounds [1] is illustrated below. (1) Inhibitory action of cyclic AMP/phosphodiesterase:
A mixture of 2 mM MgCl2 /40 mM Tris-buffer (pH 7.5) 700 μl, enzyme solution (a crude enzyme fraction obtained from sonicated rabbit platelets) 100 μl, and a test sample solution (compound [1] dissolved in 50% aqueous methanol) 100 μl is incubated at 30° C. for 5 mins. 3', 5'-cyclic AMP 100 μl (50 μg) is added thereto and the mixture is further incubated for 40 mins. The reaction is stopped by heating 100° C. for 5 mins. The amount of 5'-AMP in the supernatant obtained by centrifugation at 3000 rpm for 5 mins. is measured using HPLC.
As shown in that table, the compound of the present invention has cyclic AMP/phosphodiesterase inhibitory activity at 1-10 μg/ml.

[2] = test system: rabbit platelet-rich plasma; experiment: Platelet aggregation inhibition (rabbit platelet-rich plasma, aggregometer); assay type: cell-based; conditions: Oryctolagus cuniculus, compound final concentration 10 μM, read-out: Inhibitory ratio
Method: (2) Platelet aggregation inhibition:
A rabbit platelet-rich plasma (5×10^5 /mm^3), to which was added 1/10 volume of a 3.8% sodium citrate solution, 216 μl, is incubated in an aggregometer at 37° C., 1000 rpm, for 3 mins. A test sample solution 12 μl (final concentration 10 μM) is added thereto and the mixture is further incubated for 3 mins., and collagen (aggregation agent) 2.5 μg/ml, ADP 2.5 μM, platelet activating factor (PAF) 0.05 μg/ml or 0.25 mM arachidonic acid (A.A.) 12 μl is added thereto as an aggregating agent, and the platelet aggregation activity is measured.

[3] = aggregating agent PAF 0.05 μg/ml
[4] = aggregating agent arachidonic acid (A.A.) 0.25 mM
[5] = aggregating agent collagen 2.5 μg/ml

Compound	Inhibitory ratio ([1]; 1 μg/ml) [%]	Inhibitory ratio ([1]; 10 μg/ml) [%]	Inhibitory ratio ([1]; 100 μg/ml) [%]	inhibition at 10 µM [2, 3] [%]	inhibition at 10 µM [2, 4] [%]	inhibition at 10 µM [2, 5] [%]	inhibition at 10 µM ([2]; aggregating agent ADP 2.5 μM) [%]
O=C1CNc2cc(OCCCCc3nnnn3C3CCCCC3)ccc2N1 [Compound 931, 6-[4-(1-cyclohexyltetrazole-5-yl)-butoxy]-2-oxo-1,2,3,4-tetrahydroquinoxaline]	25.3	74.3	86.4	44.3	34	65.2	–
CCOC(=O)CCCOc1ccc2[nH]c(=O)c(C)nc2c1 [Compound 945]	44.3	83.5	88.9	–	–	54.2	–
CCOC(=O)CCCOc1ccc2[nH]c(=O)c(CC)nc2c1 [Compound 946]	78.7	92.5	–	90.7	85.1	79.2	91.5
CCCc1nc2cc(OCCCC(=O)OCC)ccc2[nH]c1=O [Compound 947]	66.9	90.1	–	27.5	19.6	39.5	59.5
Cc1nc2cc(OCCCC(=O)N(CCO)C3CCCCC3)ccc2[nH]c1=O [Compound 966]	54.5	86.6	93.7	–	–	83.5	–
CCc1nc2cc(OCCCC(=O)N(CCO)C3CCCCC3)ccc2[nH]c1=O [Compound 972]	84.4	93.4	–	56.3	48.7	70.5	63.6
